What follows are molecules tested against T1, mTOR (Homo sapiens, UniProt P42345) (assay: In Vitro mTOR Kinase Assay (Echo), Test (a)(ii)). Settings: read-out: mTOR Kinase Assay (Echo).
T1 construct: FLAG; made in house
Type: biochemical
Summary of the method: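 AlphaScreen read-out: biotinylated substrate phosphorylation was detected with anti-p70 S6K (T389) 1A5 antibody, Protein A acceptor and streptavidin donor beads after overnight dark incubation at room temperature. Enzyme was FLAG-mTOR 1362-2549 from stable HEK293 cells.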

T1 sequence (P42345 1362-2549): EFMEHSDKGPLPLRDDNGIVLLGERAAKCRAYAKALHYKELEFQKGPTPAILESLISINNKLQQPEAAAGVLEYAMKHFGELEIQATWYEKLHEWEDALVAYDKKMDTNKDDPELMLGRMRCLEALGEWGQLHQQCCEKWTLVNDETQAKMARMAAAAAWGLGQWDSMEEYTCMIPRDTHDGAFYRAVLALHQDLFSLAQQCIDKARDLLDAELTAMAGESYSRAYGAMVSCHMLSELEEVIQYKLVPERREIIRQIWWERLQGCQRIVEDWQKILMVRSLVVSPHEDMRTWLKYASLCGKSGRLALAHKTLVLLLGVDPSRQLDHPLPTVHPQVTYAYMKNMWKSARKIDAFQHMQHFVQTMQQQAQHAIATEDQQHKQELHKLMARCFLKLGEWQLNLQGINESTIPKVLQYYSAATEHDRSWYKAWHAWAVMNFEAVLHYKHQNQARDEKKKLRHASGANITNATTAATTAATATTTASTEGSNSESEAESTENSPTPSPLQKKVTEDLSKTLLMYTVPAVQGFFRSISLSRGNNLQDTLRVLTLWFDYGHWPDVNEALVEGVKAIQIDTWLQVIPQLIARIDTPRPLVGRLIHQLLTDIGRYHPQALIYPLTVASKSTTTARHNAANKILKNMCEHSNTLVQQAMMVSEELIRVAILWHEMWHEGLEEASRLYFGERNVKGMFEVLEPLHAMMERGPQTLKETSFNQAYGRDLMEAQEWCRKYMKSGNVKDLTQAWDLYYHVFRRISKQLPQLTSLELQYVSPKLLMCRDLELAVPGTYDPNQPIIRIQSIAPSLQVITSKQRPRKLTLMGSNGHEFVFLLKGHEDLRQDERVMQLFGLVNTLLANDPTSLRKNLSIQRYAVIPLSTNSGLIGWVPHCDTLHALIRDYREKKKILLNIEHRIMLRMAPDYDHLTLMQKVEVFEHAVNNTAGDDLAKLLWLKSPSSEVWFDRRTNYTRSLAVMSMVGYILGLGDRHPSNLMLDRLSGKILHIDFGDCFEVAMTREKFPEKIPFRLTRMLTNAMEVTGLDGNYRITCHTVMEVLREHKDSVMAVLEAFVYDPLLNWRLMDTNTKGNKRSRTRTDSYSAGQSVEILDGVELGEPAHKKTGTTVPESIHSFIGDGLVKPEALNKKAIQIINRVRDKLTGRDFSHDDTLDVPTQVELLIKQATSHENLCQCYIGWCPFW

IC50 [nM]	Structure (SMILES)
1.38	C[C@H]1COCCN1c1cc(C2(S(C)(=O)=O)CC2)nc(-c2ccc(NC(=O)Nc3ccc(Cl)cc3)cc2)n1 [Example 2s, 3-(4-chlorophenyl)-1-[4-[4-[(3S)-3-methylmorpholin-4-yl]-6-(1-methylsulfonylcyclopropyl)pyrimidin-2-yl]phenyl]urea]
0.272	C[C@H]1COCCN1c1cc(C2(S(C)(=O)=O)CC2)nc(-c2ccc(NC(=O)Nc3ccccc3)cc2)n1 [Example 2h, 1-[4-[4-[(3S)-3-methylmorpholin-4-yl]-6-(1-methylsulfonylcyclopropyl)pyrimidin-2-yl]phenyl]-3-phenyl-urea]
9.13	CC(C)S(=O)(=O)C1(c2cc(N3CCOC[C@@H]3C)nc(-c3ccc(NC(=O)Nc4ccccn4)cc3)n2)CC1 [Example 7l, 1-[4-[4-[(3S)-3-methylmorpholin-4-yl]-6-(1-propan-2-ylsulfonylcyclopropyl)pyrimidin-2-yl]phenyl]-3-pyridin-2-yl-urea]
12.2	CCS(=O)(=O)C1(c2cc(N3CCOC[C@@H]3C)nc(-c3ccc(NC(=O)NCCCO)cc3)n2)CC1 [Example 11j, 1-[4-[4-(1-ethylsulfonylcyclopropyl)-6-[(3S)-3-methylmorpholin-4-yl]pyrimidin-2-yl]phenyl]-3-(3-hydroxypropyl)urea]
5.89	C[C@H]1COCCN1c1cc(C2(S(C)(=O)=O)CC2)nc(-c2ccc(NC(=O)NCC3CC3)cc2)n1 [Example 2m, 3-(cyclopropylmethyl)-1-[4-[4-[(3S)-3-methylmorpholin-4-yl]-6-(1-methylsulfonylcyclopropyl)pyrimidin-2-yl]phenyl]urea]

Same assay, conditions: table of enzyme assay Test (a)(ii); read-out: Test (a)(ii) IC50

Structure (SMILES)	IC50 [nM]
C[C@H]1COCCN1c1cc(C2(S(=O)(=O)C3CC3)CC2)nc(-c2ccc(NC(=O)Nc3cnn(C)c3)nc2)n1 [Example 14d, 1-[5-[4-(1-cyclopropylsulfonylcyclopropyl)-6-[(3S)-3-methylmorpholin-4-yl]pyrimidin-2-yl]pyridin-2-yl]-3-(1-methylpyrazol-4-yl)urea]	14.3
C[C@H]1COCCN1c1cc(C2(S(=O)(=O)C3CC3)CCOCC2)nc(-c2ccc(NC(=O)NC3CC3)cc2)n1 [Example 23e, 3-cyclopropyl-1-[4-[4-(4-cyclopropylsulfonyloxan-4-yl)-6-[(3S)-3-methylmorpholin-4-yl]pyrimidin-2-yl]phenyl]urea]	8.76
O=C(Nc1ccc(-c2nc(N3CCOCC3)cc(C3(S(=O)(=O)c4ccccc4)CC3)n2)cc1)Nc1ncns1 [Example 36di, 1-[4-[4-[1-(benzenesulfonyl)cyclopropyl]-6-morpholin-4-ylpyrimidin-2-yl]phenyl]-3-(1,2,4-thiadiazol-5-yl)urea]	9.23
C[C@H]1COCCN1c1cc(C2(S(C)(=O)=O)CCC2)nc(-c2ccc(NC(=S)NCc3ncc[nH]3)cc2)n1 [Example 62a, 3-(1H-imidazol-2-ylmethyl)-1-[4-[4-[(3S)-3-methylmorpholin-4-yl]-6-(1-methylsulfonylcyclobutyl)pyrimi-din-2-yl]phenyl]thiourea]	39.3
C[C@H]1COCCN1c1cc(C2(S(=O)(=O)c3cc(F)ccc3F)CC2)nc(-c2ccc(NC(=O)NCC(F)F)cc2)n1 [Example 60d, 3-(2,2-difluoroethyl)-1-[4-[4-[1-(2,5-difluorophenyl)sulfonylcyclopropyl]-6-[(3S)-3-methylmorpholin-4-yl]pyrimidin-2-yl]phenyl]urea]	18.3
CNC(=S)Nc1ccc(-c2nc(N3CCOC[C@@H]3C)cc(C3(S(=O)(=O)CCCO)CC3)n2)cc1 [Example 37g, 1-[4-[4-[1-(3-hydroxypropylsulfonyl)cyclopro-pyl]-6-[(3S)-3-methylmorpholin-4-yl]pyrimidin-2-yl]phenyl]-3-methylthiourea]	17.9
C[C@H]1COCCN1c1cc(C2(S(=O)(=O)c3cccc(F)c3)CC2)nc(-c2ccc(NC(=O)NCC(F)F)cc2)n1 [Example 53d, 3-(2,2-difluoroethyl)-1-[4-[4-[1-(3-fluorophenyl)sulfonylcyclopro-pyl]-6-[(3S)-3-methylmorpholin-4-yl]pyrimidin-2-yl]phenyl]urea]	3.1
C[C@H]1COCCN1c1cc(C2(S(=O)(=O)c3cccc(F)c3)CC2)nc(-c2ccc(NC(=O)Nc3cnn(C)c3)cc2)n1 [Example 53f, 1-[4-[4-[1-(3-fluorophenyl)sulfonylcyclopro-pyl]-6-[(3S)-3-methylmorpholin-4-yl]pyrimidin-2-yl]phenyl]-3-(1-methylpyrazol-4-yl)urea]	6.34
CNC(=O)Nc1ccc(-c2nc(N3CCOC[C@@H]3C)cc(C3(S(=O)(=O)c4ccc(F)c(F)c4)CC3)n2)cc1 [Example 64g, 1-[4-[4-[1-(3,4-difluorophenyl)sulfonylcyclopro-pyl]-6-[(3S)-3-methylmorpholin-4-yl]pyrimidin-2-yl]phenyl]-3-methylurea]	34.2
C[C@H]1COC[C@H](C)N1c1cc(C2(S(=O)(=O)c3ccccc3)CC2)nc(-c2ccc(NC(=O)Nc3cnn(C)c3)cc2)n1 [Example 93e, 1-[4-[4-[1-(benzenesulfonyl)cyclopropyl]-6-[(3S,5S)-3,5-dimethylmorpholin-4-yl]pyrimidin-2-yl]phenyl]-3-(1-methylpyrazol-4-yl)urea]	5.41
C[C@H]1COCCN1c1cc(C2(S(=O)(=O)CCCO)CCC2)nc(-c2ccc(NC(=S)NCCO)cc2)n1 [Example 99f, 3-(2-hydroxyethyl)-1-[4-[4-[1-(3-hydroxypropylsulfonyl)cyclobutyl]-6-[(3S)-3-methylmorpholin-4-yl]pyrimidin-2-yl]phenyl]thiourea]	5.89
CNC(=O)Nc1ccc(-c2nc(N3CCOC[C@@H]3C)cc(C3(S(=O)(=O)c4c(F)cccc4F)CC3)n2)cc1 [Example 86, 1-[4-[4-[1-(2,6-Difluorophenyl)sulfonylcyclopropyl]-6-[(3S)-3-methylmorpholin-4-yl]pyrimidin-2-,yl]phenyl]-3-methylurea]	2.47
Cc1noc(C)c1S(=O)(=O)C1(c2cc(N3CCOC[C@@H]3C)nc(-c3ccc(NC(=O)NC4CC4)cc3)n2)CC1 [Example 59a, 3-cyclopropyl-1-[4-[4-[1-[(3,5-dimethyl-1,2-oxazol-4-yl)sulfonyl]cyclopropyl]-6-[(3S)-3-methylmorpholin-4-yl]pyrimidin-2-yl]phenyl]urea]	22.2
CCNC(=O)Nc1ccc(-c2nc(N3CCOC[C@@H]3C)cc(C3(S(=O)(=O)C4CCCCC4)CC3)n2)cc1 [Example 26b, 3-[4-[4-(1-cyclohexylsulfonylcyclopropyl)-6-[(3S)-3-methylmorpholin-4-yl]pyrimidin-2-yl]phenyl]-1-ethylurea]	3.9
C[C@H]1COCCN1c1cc(C2(S(=O)(=O)c3c(F)cccc3F)CC2)nc(-c2ccc(NC(=O)Nc3cnn(C)c3)cc2)n1 [Example 86f, 1-[4-[4-[1-(2,6-difluorophenyl)sulfonylcyclopropyl]-6-[(3S)-3-methylmorpholin-4-yl]pyrimidin-2-yl]phenyl]-3-(1-methylpyrazol-4-yl)urea]	3.45
CCNC(=O)Nc1ccc(-c2nc(N3CCOCC3)cc(C3(S(=O)(=O)CCO)CC3)n2)cc1 [Example 47b, 3-ethyl-1-[4-[4-[1-(2-hydroxyethylsulfonyl)cyclopropyl]-6-morpholin-4-ylpyrimidin-2-yl]phenyl]urea]	14.9

More lines, now with the values ahead:

IC50 [nM]	Structure (SMILES)
1.31	C[C@H]1COCCN1c1cc(C2(S(=O)(=O)c3ccc(F)cc3)CC2)nc(-c2ccc(NC(=O)NCCC#N)cc2)n1 [Example 36y, 3-(2-cyanoethyl)-1-[4-[4-[1-(4-fluorophenyl)sulfonylcyclopropyl]-6-[(3S)-3-methylmorpholin-4-yl]pyrimidin-2-yl]phenyl]urea]
0.973	C[C@H]1COCCN1c1cc(C2(S(=O)(=O)c3ccccc3)CC2)nc(-c2ccc(NC(=O)NCCF)cc2)n1 [Example 36ds, 1-[4-[4-[1-(benzenesulfonyl)cyclopropyl]-6-[(3S)-3-methylmorpholin-4-yl]pyrimidin-2-yl]phenyl]-3-(2-fluoroethyl)urea]
1.52	CNC(=O)Nc1ccc(-c2nc(N3CCOC[C@@H]3C)cc(C3(S(=O)(=O)c4cc(F)cc(F)c4)CC3)n2)cc1 [Example 19i, 1-[4-[4-[1-(3,5-difluorophenyl)sulfonylcyclopro-pyl]-6-[(3S)-3-methylmorpholin-4-yl]pyrimidin-2-yl]phenyl]-3-methylurea]
1.55	C[C@H]1COCCN1c1cc(C2(S(C)(=O)=O)CC2)nc(-c2ccc(NC(=O)Nc3ccc(Cl)cc3)cc2)n1 [Example 2s, 3-(4-chlorophenyl)-1-[4-[4-[(3S)-3-methylmorpholin-4-yl]-6-(1-methylsulfonylcyclopropyl)pyrimidin-2-yl]phenyl]urea]
1.2	C[C@H]1COCCN1c1cc(C2(S(=O)(=O)C3CCCCC3)CC2)nc(-c2ccc(NC(=O)NCCO)cc2)n1 [Example 26d, 1-[4-[4-(1-cyclohexylsulfonylcyclopropyl)-6-[(3S)-3-methylmorpholin-4-yl]pyrimidin-2-yl]phenyl]-3-(2-hydroxyethyl)urea]
1.35	CCNC(=O)Nc1ccc(-c2nc(N3CCOC[C@@H]3C)cc(C3(S(=O)(=O)c4cc(F)cc(F)c4)CC3)n2)cc1 [Example 19e, 1-[4-[4-[1-(3,5-difluorophenyl)sulfonylcyclopro-pyl]-6-[(3S)-3-methylmorpholin-4-yl]pyrimidin-2-yl]phenyl]-3-ethylurea]
1.92	CNC(=O)Nc1ccc(-c2nc(N3CCOCC3)cc(C3(S(=O)(=O)C4CC4)CCC3)n2)cc1 [Example 13q, 1-[4-[4-(1-cyclopropylsulfonylcyclobutyl)-6-morpholin-4-ylpyrimidin-2-yl]phenyl]-3-methylurea]
1.62	Cc1csc(S(=O)(=O)C2(c3cc(N4CCOC[C@@H]4C)nc(-c4ccc(NC(=S)NCCO)cc4)n3)CC2)n1 [Example 37r, 3-(2-hydroxyethyl)-1-[4-[4-[(3S)-3-methylmorpholin-4-yl]-6-[1-[(4-methyl-1,3-thiazol-2-yl)sulfonyl]cyclopropyl]pyri-midin-2-yl]phenyl]thiourea]
0.654	CCNC(=O)Nc1ccc(-c2nc(N3CCOC[C@@H]3C)cc(C3(S(=O)(=O)C(C)(C)C)CC3)n2)cc1 [Example 18e, 1-[4-[4-(1-tert-butylsulfonylcyclopropyl)-6-[(3S)-3-methylmorpholin-4-yl]pyrimidin-2-yl]phenyl]-3-ethylurea]

From US20090018134A1, “Compounds - 945” (AstraZeneca AB, priority 2007, published 2009)
